# Legend:
# Assay type in all cases: cell-based; call rule not given here
# hERG (KCNH2), wild type [1] = target: T1, hERG (KCNH2), wild type (Homo sapiens, UniProt Q12809); assay: Inhibition of wild type human ERG channel expressed in Xenopus laevis oocytes assessed as first current amplitude after resting period of 300 secs followed by single test pulse at -100 mV holding potential by two-electrode voltage clamp method; design: scale not given: the % may be the effect or the level left; conditions: read-out: Activity
# T1 sequence (Q12809 whole entry): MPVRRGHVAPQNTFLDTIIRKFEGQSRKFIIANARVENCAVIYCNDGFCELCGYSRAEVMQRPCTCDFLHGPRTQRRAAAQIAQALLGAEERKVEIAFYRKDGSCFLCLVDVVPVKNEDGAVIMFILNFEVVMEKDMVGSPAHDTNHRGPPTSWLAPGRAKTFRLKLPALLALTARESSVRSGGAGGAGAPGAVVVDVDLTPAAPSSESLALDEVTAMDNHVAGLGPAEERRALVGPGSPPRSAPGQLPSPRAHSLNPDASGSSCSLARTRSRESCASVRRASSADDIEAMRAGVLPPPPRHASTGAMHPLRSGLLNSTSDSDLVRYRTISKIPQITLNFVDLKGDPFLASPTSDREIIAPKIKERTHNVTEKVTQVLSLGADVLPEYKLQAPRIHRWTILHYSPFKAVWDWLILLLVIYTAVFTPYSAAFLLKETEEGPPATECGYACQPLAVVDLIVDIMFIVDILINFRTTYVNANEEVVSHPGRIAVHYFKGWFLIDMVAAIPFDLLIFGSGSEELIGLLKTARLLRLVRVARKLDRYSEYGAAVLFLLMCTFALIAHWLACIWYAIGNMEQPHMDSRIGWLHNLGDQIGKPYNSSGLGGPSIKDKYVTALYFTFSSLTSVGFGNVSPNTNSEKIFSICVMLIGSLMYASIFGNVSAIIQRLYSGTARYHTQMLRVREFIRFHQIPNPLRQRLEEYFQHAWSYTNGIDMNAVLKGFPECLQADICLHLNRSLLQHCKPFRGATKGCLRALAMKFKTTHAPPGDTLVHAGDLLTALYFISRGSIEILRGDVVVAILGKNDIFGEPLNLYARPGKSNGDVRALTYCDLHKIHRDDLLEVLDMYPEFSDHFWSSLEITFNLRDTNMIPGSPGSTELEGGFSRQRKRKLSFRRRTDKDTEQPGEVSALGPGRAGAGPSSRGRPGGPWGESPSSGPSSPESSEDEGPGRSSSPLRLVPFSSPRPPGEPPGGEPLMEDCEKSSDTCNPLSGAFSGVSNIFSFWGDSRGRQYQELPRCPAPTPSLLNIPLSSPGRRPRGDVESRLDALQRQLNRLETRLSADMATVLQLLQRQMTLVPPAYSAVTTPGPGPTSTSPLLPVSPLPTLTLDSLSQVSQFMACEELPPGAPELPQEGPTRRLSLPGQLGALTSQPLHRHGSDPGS
# [2] = target: T2, Voltage-gated inwardly rectifying potassium channel KCNH2 (Homo sapiens, UniProt Q12809); assay: Inhibition of wild type human ERG channel expressed in Xenopus laevis oocytes assessed as use dependent steady state block of induced K+ current at 150 uM preincubated for 330 secs followed by pulse train at 1 Hz at holding potential -100 mV by two-electrode voltage clamp method
# T2 sequence (Q12809 whole entry): as above
# [3] = target: hERG (KCNH2) F656A mutant (Homo sapiens, UniProt Q12809, F656A); assay: Inhibition of human ERG channel F656A mutant expressed in Xenopus laevis oocytes assessed as use dependent suppression of tail current at 150 uM at -140 mV by two-electrode voltage clamp method
# Chain of hERG (KCNH2) F656A mutant (Q12809 whole entry F656A): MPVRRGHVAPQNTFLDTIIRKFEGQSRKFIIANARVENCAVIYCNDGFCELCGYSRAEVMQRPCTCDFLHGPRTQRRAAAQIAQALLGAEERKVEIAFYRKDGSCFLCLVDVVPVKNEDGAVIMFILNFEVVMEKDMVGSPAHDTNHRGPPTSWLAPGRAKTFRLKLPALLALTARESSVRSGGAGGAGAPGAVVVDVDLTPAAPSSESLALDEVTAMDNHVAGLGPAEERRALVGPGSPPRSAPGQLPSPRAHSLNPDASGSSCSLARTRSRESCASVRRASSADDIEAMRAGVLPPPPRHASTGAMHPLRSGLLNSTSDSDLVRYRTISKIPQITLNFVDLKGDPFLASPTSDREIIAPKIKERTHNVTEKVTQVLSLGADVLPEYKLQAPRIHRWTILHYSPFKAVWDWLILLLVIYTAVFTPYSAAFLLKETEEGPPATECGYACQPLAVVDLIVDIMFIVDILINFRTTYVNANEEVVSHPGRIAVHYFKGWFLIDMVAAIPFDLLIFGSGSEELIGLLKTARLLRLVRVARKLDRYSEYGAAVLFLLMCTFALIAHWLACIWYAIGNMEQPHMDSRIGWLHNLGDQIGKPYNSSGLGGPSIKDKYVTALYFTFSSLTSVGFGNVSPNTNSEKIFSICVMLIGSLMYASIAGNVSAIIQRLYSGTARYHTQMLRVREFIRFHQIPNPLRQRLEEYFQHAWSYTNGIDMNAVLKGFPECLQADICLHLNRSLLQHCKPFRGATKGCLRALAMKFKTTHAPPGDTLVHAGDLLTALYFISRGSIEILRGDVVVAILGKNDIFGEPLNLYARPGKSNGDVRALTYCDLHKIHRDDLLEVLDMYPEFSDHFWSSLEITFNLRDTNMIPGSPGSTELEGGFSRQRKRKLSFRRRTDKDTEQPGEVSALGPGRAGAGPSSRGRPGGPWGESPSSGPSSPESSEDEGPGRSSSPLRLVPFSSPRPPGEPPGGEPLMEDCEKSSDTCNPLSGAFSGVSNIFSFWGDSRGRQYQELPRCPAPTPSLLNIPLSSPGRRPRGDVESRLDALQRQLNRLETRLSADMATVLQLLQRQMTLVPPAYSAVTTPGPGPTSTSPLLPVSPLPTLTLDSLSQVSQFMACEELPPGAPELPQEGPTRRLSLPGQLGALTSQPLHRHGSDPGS
# [4] = target: T2, Voltage-gated inwardly rectifying potassium channel KCNH2; assay: Inhibition of wild type human ERG channel expressed in Xenopus laevis oocytes assessed as time taken for use dependent steady state block of K+ current at 150 uM preincubated for 330 secs followed by pulse train at 1 Hz at holding potential -100 mV by two-electrode voltage clamp method
# [5] = target: hERG (KCNH2) Y652A mutant (Homo sapiens, UniProt Q12809, Y652A); assay: Inhibition of human ERG channel Y652A mutant expressed in Xenopus laevis oocytes assessed as use dependent suppression of K+ current at 150 uM at 1 Hz equilibrated for 5 mins by two-electrode voltage clamp method
# Chain of hERG (KCNH2) Y652A mutant (Q12809 whole entry Y652A): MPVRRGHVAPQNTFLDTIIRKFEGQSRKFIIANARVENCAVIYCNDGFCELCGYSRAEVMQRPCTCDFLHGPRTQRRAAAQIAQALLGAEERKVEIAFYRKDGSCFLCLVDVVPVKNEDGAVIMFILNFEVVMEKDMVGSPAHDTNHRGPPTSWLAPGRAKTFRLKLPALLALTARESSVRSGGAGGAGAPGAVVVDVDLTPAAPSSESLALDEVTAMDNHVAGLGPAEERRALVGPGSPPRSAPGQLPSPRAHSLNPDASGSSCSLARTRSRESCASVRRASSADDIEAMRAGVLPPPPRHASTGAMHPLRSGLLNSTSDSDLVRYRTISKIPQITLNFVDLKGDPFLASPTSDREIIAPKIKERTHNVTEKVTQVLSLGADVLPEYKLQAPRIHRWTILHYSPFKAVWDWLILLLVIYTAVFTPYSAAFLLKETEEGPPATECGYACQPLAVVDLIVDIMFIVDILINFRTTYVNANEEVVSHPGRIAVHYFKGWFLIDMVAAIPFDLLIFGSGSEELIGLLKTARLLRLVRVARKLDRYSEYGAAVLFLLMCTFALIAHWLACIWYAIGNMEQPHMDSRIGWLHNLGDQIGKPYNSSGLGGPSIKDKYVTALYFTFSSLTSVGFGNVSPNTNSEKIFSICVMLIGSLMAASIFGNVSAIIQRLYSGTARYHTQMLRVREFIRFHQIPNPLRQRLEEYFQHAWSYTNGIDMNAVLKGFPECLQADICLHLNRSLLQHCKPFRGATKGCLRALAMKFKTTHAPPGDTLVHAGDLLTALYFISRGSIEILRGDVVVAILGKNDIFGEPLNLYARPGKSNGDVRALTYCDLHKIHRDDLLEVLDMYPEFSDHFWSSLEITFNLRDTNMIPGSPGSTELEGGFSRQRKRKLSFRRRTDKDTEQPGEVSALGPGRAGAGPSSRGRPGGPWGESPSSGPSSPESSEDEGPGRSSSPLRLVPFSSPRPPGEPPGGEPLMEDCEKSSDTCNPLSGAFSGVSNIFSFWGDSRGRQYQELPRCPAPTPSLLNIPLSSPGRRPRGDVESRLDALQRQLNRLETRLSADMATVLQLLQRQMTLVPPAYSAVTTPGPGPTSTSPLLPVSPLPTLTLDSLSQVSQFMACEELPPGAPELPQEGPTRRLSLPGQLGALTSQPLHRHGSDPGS
# [6] = target: T2, Voltage-gated inwardly rectifying potassium channel KCNH2; assay: Inhibition of wild type human ERG channel expressed in Xenopus laevis oocytes assessed as recovery from channel block after resting period of 300 secs followed by single test pulse at -100 mV holding potential subsequently washed out at 0.3 Hz by two-electrode voltage clamp method; design: scale not given: the % may be the effect or the level left; conditions: 5 min
# hERG (KCNH2), wild type [7] = target: T1, hERG (KCNH2), wild type; assay: Inhibition of wild type human ERG channel expressed in Xenopus laevis oocytes assessed as use dependent steady state block of +20 mV-induced K+ current at 150 uM preincubated for 330 secs followed by pulse train at 1 Hz by two-electrode voltage clamp method
smiles,measurement,setting,value
O=C(CCc1ccccc1)c1ccccc1OCC(O)CN1CCN(C(c2ccccc2)(c2ccccc2)c2ccccc2)CC1 (configuration not stated),activity at 5 min,"hERG (KCNH2), wild type [1]",< 1%
same,inhibition (INH),[2],Active
same,inhibition at 150 µM,[3],18.3%
same,Time,[4],15 s
same,"inhibition at 5 min, 150 µM",[5],13.2%
same,Activity,[6],47.5%
same,"inhibition at 330 s, 150 µM","hERG (KCNH2), wild type [7]",69%
